Assay results as given in patent publication US4355170A, “1-Substituted imidazole derivatives” (Ono Pharmaceutical Co., Ltd., priority 1978, dated 1982).
Counter-ions that a name gives are not always drawn.

Key:
[1] = target: T1, thromboxane synthetase from rabbit platelet microsomes (Oryctolagus cuniculus, UniProt G1TAZ9); assay: inhibition of thromboxane synthetase from rabbit platelet microsomes (conversion of prostaglandin H2 into thromboxane B2); format: biochemical
T1 construct: thromboxane synthetase from rabbit platelet microsomes; from tissue; host or cells: rabbit platelet microsomes
T1 sequence (G1TAZ9 1-530): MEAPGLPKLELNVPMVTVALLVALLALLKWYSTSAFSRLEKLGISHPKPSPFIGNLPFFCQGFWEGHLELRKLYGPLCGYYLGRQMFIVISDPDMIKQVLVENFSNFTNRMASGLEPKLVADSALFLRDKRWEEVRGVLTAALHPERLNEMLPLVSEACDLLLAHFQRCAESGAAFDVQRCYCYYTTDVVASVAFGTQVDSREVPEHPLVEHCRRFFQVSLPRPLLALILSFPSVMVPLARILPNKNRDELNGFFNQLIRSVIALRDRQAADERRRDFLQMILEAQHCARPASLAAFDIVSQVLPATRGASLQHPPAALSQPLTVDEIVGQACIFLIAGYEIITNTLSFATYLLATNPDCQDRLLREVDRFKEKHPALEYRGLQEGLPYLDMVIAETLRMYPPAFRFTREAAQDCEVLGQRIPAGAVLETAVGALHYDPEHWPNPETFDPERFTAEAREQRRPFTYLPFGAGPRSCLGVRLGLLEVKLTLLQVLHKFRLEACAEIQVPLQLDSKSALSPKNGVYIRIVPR

[2] = system: arachidonic acid-induced sudden deaths; assay: inhibitory effect on arachidonic acid-induced sudden deaths of rabbits; format: in vivo; conditions: oral administration, 100 mg/kg animal body weight
thromboxane synthetase = assay: inhibitory action for thromboxane synthetase (prior art compounds); format: biochemical; conditions: not completely satisfactory as a practical medication
Description: However, since their inhibitory action for thromboxane synthetase is weak, these compounds are hardly applicable as practically effective medicines.
On the other hand, N-(6-methoxycarbonylhexyl)imidazole has already been synthesized by P. Matthias et al, and publicly known [Monatsch Chem., 108(5), 1059(1977)].

[3] = acute toxicity test, LD50 in mice; conditions: mouse, in vivo, iv

## CC(C)(CCCCCCC(=O)O)n1ccnc1 [1-(7-carboxy-1,1-dimethylheptyl)imidazole hydrochloride]
[1]
  IC50: 0.09 µM

## CC(CCCCCCn1ccnc1)C(=O)O.Cl (racemic) [1-[(7RS)-7-carboxyoctyl]imidazole hydrochloride]
[1]
  IC50: 0.03 µM
[2]
  inhibitory effect on arachidonic acid-induced sudden deaths of rabbits: inhibitory effect

## CCCCC(CCCn1ccnc1)C(=O)OCC (racemic) [1-[(4RS)-4-ethoxycarbonyloctyl]imidazole]
[1]
  IC50: 0.13 µM

## COC(=O)CCCCCCn1ccnc1 [N-(6-methoxycarbonylhexyl)imidazole]
Thromboxane synthetase
  inhibitory effect on thromboxane synthetase compared with imidazole or 1-methylimidazole: stronger inhibitory effect

## CC(CCCCCn1ccnc1)CC(=O)O (racemic) [1-[(6RS)-7-carboxy-6-methylheptyl]imidazole hydrochloride]
[1]
  IC50: 0.048 µM

## CCOC(=O)/C=C/CCCCCn1ccnc1 [(E)-1-(7-ethoxycarbonyl-6-heptenyl)imidazole]
[1]
  IC50: 2.8 µM

## CC(CCCCCn1ccnc1)C(C)C(=O)O.Cl (stereo not shown) [1-(7-carboxy-6-methyloctyl)imidazole hydrochloride]
[3]
  LD50: 330 mg/kg

## CC(C)(CCCCCCn1ccnc1)C(=O)O.Cl [1-(7-carboxy-7-methyloctyl)imidazole hydrochloride]
[2]
  inhibitory effect on arachidonic acid-induced sudden deaths of rabbits: inhibitory effect

## CCOC(=O)C(C)CCCCCCn1ccnc1 (racemic) [1-[(7RS)-7-ethoxycarbonyloctyl]imidazole]
[1]
  IC50: 0.2 µM

## CCOC(=O)C(C)(C)CCCCCCn1ccnc1 [1-(7-ethoxycarbonyl-7-methyloctyl)imidazole]
[1]
  IC50: 1 µM

## Cl.O=C(O)CCCCC#CCn1ccnc1 [1-(7-carboxy-2-heptynyl)imidazole hydrochloride]
[2]
  inhibitory effect on arachidonic acid-induced sudden deaths of rabbits: inhibitory effect

## CC(C)(CCCCn1ccnc1)CCC(=O)O [1-(7-carboxy-5,5-dimethylheptyl)imidazole hydrochloride]
[1]
  IC50: 0.071 µM

## O=C(O)/C=C\CCCCCn1ccnc1 [(Z)-1-(7-carboxy-6-heptenyl)imidazole hydrochloride]
[1]
  IC50: 0.016 µM

## O=C(O)/C=C/CCCCCn1ccnc1 [(E)-1-(7-carboxy-6-heptenyl)imidazole hydrochloride]
[1]
  IC50: 0.07 µM

## O=C(O)CCCC/C=C\Cn1ccnc1 [(Z)-1-(7-carboxy-2-heptenyl)imidazole hydrochloride]
[1]
  IC50: 0.056 µM
